Reference: US10266548B2, “Substituted benzylindazoles for use as Bub1 kinase inhibitors in the treatment of hyperproliferative diseases” (Bayer Intellectual Property GmbH, priority 2011, dated 2019)
Where two headings read alike, the source gives them in different places.

Columns and labels:
[1] = target: catalytic domain of human Bub1 (amino acids 704-1085) (Homo sapiens (Human), UniProt O43683); assay: Bub1 kinase assay (TR-FRET); format: biochemical; conditions: 10 μM ATP, 1 μM peptide substrate; read-out: Biological Assay 1: Bub1 kinase assay median IC50
Description: To this end, 100-fold concentrated compound solutions (in DMSO) were previously prepared by serial dilution (1:3.4) of 2 mM stocks in a clear low volume 384-well source microtiter plate (Greiner Bio-One, Frickenhausen, Germany), from which 50 nl of compounds were transferred into a black low volume test microtiter plate from the same supplier. […] The resulting mixture (5 μl final volume) was incubated at 22° C. during 60 min., and the reaction was stopped by the addition of 5 μl of an aqueous EDTA-solution (50 mM EDTA, in 100 mM HEPES pH 7.5 and 0.2% (w/v) bovine serum albumin) which also contained the TR-FRET detection reagents (0.2 μM streptavidin-XL665 [Cisbio Bioassays, Codolet, France] and 1 nM anti-phosho-Serine antibody [Merck Millipore, cat. #35-001] and 0.4 nM LANCE EU-W1024 labeled anti-mouse IgG antibody [Perkin-Elmer, product no. AD0077, alternatively a Terbium-cryptate-labeled anti-mouse IgG antibody from Cisbio Bioassays can be used]). The stopped reaction mixture was further incubated 1 h at 22° C. in order to allow the formation of complexes between peptides and detection reagents. Subsequently, the amount of product was evaluated by measurement of the resonance energy transfer from the Eu-chelate-antlbody complex recognizing the Phosphoserlne residue to the streptavidin-XL665 bound to the biotin moiety of the peptide. […] IC50 values were calculated by fitting the normalized inhibition data to a 4-parameter logistic equation (Minimum, Maximum, IC50, Hill; Y=Max+(Min−Max)/(1+(X/IC50)Hill)) using a Bayer-proprietary analysis software.

[2] = tested on: HeLa cells; assay: Proliferation assay (HeLa cell line); format: cell-based; conditions: read-out: Biological Assay 2: Proliferation assay (HeLa cell line) median IC50
Description: Cultivated tumor cells (cells were ordered from ATCC, except HeLa-MaTu and HeLa-MaTu-ADR, which were ordered from EPO-GmbH, Berlin) were plated at a density of 1000 to 5000 cells/well, depending on the growth rate of the respective cell line, in a 96-well multititer plate in 200 μL of their respective growth medium supplemented 10% fetal calf serum. After 24 hours, the cells of one plate (zero-point plate) were stained with crystal violet (see below), while the medium of the other plates was replaced by fresh culture medium (200 μl), to which the test substances were added in various concentrations (0 μM, as well as in the range of 0.001-10 μM; the final concentration of the solvent dimethyl sulfoxide was 0.5%). The cells were incubated for 4 days in the presence of test substances. Cell proliferation was determined by staining the cells with crystal violet: the cells were fixed by adding 20 μl/measuring point of an 11% glutaric aldehyde solution for 15 minutes at room temperature. After three washing cycles of the fixed cells with water, the plates were dried at room temperature. The cells were stained by adding 100 μl/measuring point of a 0.1% crystal violet solution (pH 3.0). After three washing cycles of the stained cells with water, the plates were dried at room temperature. The dye was dissolved by adding 100 μl/measuring point of a 10% acetic acid solution. […] The change of cell number, in percent, was calculated by normalization of the measured values to the aborbtion values of the zero-point plate (=0%) and the absorbtion of the untreated (0 μm) cells (=100%). The IC50 values were determined by means of a 4 parameter fit using the company's own software.

[3] = Homo sapiens, 96 h, 4 days, crystal violet

Row | SMILES | IC50 [1] [µM] | IC50 ([2]; Homo sapiens, 96 h) [µM] | IC50 ([2]; 4 days, crystal violet) [µM] | IC50 [2, 3] [µM]
1 | CCOc1cc(F)c(Cn2nc(-c3ncc(OCC4(CO)COC4)c(Nc4ccncc4)n3)c3ccccc32)c(F)c1 [Example 4-1, {3-[({2-[1-(4-ethoxy-2,6-difluorobenzyl)-1H-indazol-3-yl]-4-(pyridin-4-ylamino)pyrimidin-5-yl}oxy)methyl]oxetan-3-yl}methanol] | 0.0024 | 3.5 | – | –
2 | COc1ccc(Cn2nc(-c3ncc(OC)c(Nc4cc[nH]c(=O)c4)n3)c3ccccc32)cc1 [Example 24-7, 4-({5-methoxy-2-[1-(4-methoxybenzyl)-1H-indazol-3-yl]pyrimidin-4-yl}amino)pyridin-2(1H)-one] | 1.2 | 10 | – | –
3 | COc1cnc(-c2nn(Cc3ccc(I)cc3Cl)c3ccccc23)nc1Nc1ccncc1 [Example 2-28-1, 2-[1-(2-chloro-4-iodobenzyl)-1H-indazol-3-yl]-5-methoxy-N-(pyridin-4-yl)pyrimidin-4-amine] | 0.022 | 8.1 | – | –
4 | COc1cnc(-c2nn(Cc3c(OCC(F)(F)F)cc(Br)cc3OCC(F)(F)F)c3ccccc23)nc1Nc1ccncc1 [Example 18-2] | 2.8 | – | 3.5 | –
5 | CCOC(=O)Cc1cccc(Cn2nc(-c3ncc(OC)c(Nc4ccncc4)n3)c3ccccc32)c1 [Example 2-35-1, ethyl [3-({3-[5-methoxy-4-(pyridin-4-ylamino)pyrimidin-2-yl]-1H-indazol-1-yl}methyl)phenyl]acetate] | 0.052 | – | – | ≥ 10
6 | CCOc1cc(F)c(Cn2nc(-c3nccc(N(CC4(CO)COC4)c4ccncc4)n3)c3ccccc32)c(F)c1 [Example 17-2] | 2.4 | – | ≥ 10 | –
7 | CCOc1cc(F)c(Cn2nc(-c3ncc(OC)c(Nc4cc[nH]c(=O)c4)n3)c3ccccc32)c(F)c1 [Example 24-8, 4-({2-[1-(4-ethoxy-2,6-difluorobenzyl)-1H-indazol-3-yl]-5-methoxypyrimidin-4-yl}amino)pyridin-2(1H)-one] | 0.026 | 10 | – | –
8 | CCOc1cc(F)c(Cn2nc(-c3ncc(OCCS(C)(=O)=O)c(Nc4ccncc4)n3)c3ccccc32)c(F)c1 [Example 37-1, 2-[1-(4-ethoxy-2,6-difluorobenzyl)-1H-indazol-3-yl]-5-[2-(methylsulfonyl)ethoxy]-N-(pyridin-4-yl)pyrimidin-4-amine] | 0.0057 | – | – | 4.2
9 | COc1cnc(-c2nn(Cc3ccccc3F)c3ccccc23)nc1Nc1ccncc1 [Example 24-3, 2-[1-(2-fluorobenzyl)-1H-indazol-3-yl]-5-methoxy-N-(pyridin-4-yl)pyrimidin-4-amine] | 0.013 | 9.3 | – | –
10 | COc1cnc(-c2nn(Cc3c(Cl)ccc(C(N)=O)c3Cl)c3ccccc23)nc1Nc1ccncc1 [Example 20-2, 2,4-dichloro-3-({3-[5-methoxy-4-(pyridin-4-yla-mino)pyrimidin-2-yl]-1H-indazol-1-yl}methyl) benzamide] | 0.04 | – | – | 3.3
11 | COc1cnc(-c2nn(Cc3cccc(C(C)(C)CO)c3)c3ccccc23)nc1Nc1ccncc1 [Example 8-3, 2-[3-({3-[5-methoxy-4-(pyridin-4-ylamino)pyrimidin-2-yl]-1H-indazol-1-yl}methyl)phenyl]-2-methylpropan-1-ol] | 0.24 | – | – | ≥ 10
12 | COc1cnc(-c2nn(Cc3c(F)ccc(C)c3F)c3ccccc23)nc1Nc1ccncc1 [Example 2-48-1, 2-[1-(2,6-difluoro-3-methylbenzyl)-1H-indazol-3-yl]-5-methoxy-N-(pyridin-4-yl)pyrimidin-4-amine] | 0.0055 | ≥ 10 | – | –
13 | COc1cnc(-c2nn(Cc3ccc4c(c3)NC(=O)CC4)c3ccccc23)nc1Nc1ccncc1 [Example 2-27-1, 7-({3-[5-methoxy-4-(pyridin-4-ylamino)pyrimidin-2-yl]-1H-indazol-1-yl}methyl)-3,4-dihydroquinolin-2(1H)-one] | 0.02 | – | – | ≥ 10
14 | O=C(O)c1cnccc1Nc1nc(-c2nn(Cc3ccccc3F)c3ccccc23)ncc1O [Example 30-2, 4-({2-[1-(2-fluorobenzyl)-1H-indazol-3-yl]-5-hydroxypyrimidin-4-yl}amino)pyridine-3-carboxylic acid] | 0.02 | – | – | ≥ 10
15 | COc1cnc(-c2nn(Cc3cccc4c3OCCCO4)c3ccccc23)nc1Nc1ccncc1 [Example 2-6-3, 2-[1-(3,4-dihydro-2H-1,5-benzo-dioxepin-6-ylmethyl)-1H-indazol-3-yl]-5-methoxy-N-(pyridin-4-yl)pyrimidin-4-amine] | 0.059 | ≥ 10 | – | –
16 | CN(C)CCOc1cnc(-c2nn(Cc3ccc(F)cc3)c3ccccc23)nc1Nc1ccncc1 [Example 4-6, 5-[2-(dimethyl-amino)ethoxy]-2-[1-(4-ftuorobenzyl)-1H-indazol-3-yl]-N-(pyridin-4-yl)pyrimidin-4-amine] | 0.029 | 3.6 | – | –
17 | CCOc1cc(F)c(Cn2nc(-c3ncc(OCCOCCO)c(Nc4ccncc4)n3)c3ccccc32)c(F)c1 [Example 4-17, 2-[2-({2-[1-(4-ethoxy-2,6-difluorobenzyl)-1H-indazol-3-yl]-4-(pyridin-4-ylamino)pyrimidin-5-yl}oxy)ethoxy] ethanol] | – | 4.8 | – | –
18 | CCOc1cc(F)c(Cn2nc(-c3ncc(OCC[S+](C)[O-])c(Nc4ccncc4)n3)c3ccccc32)c(F)c1 (single isomer, unassigned) [Example 36-2, 2-[1-(4-ethoxy-2,6-difluorobenzyl)-1H-indazol-3-yl]-5-[2-(methylsulfinyl)ethoxy]-N-(pyridin-4-yl)pyrimidin-4-amine] | – | – | 0.44 | –
19 | CCOc1cc(F)c(Cn2nc(-c3ncc(OCCN4CCOCC4)c(Nc4ccncc4)n3)c3ccccc32)c(F)c1 [Example 4-12, 2-[1-(4-ethoxy-2,6-difluorobenzyl)-1H-indazol-3-yl]-5-[2-(morpholin-4-yl)ethoxy]-N-(pyridin-4-yl)pyrimidin-4-amine] | – | – | – | 9
20 | CCOc1cc(F)c(Cn2nc(-c3ncc(OCC[S+](C)[O-])c(Nc4ccncc4)n3)c3ccccc32)c(F)c1 (single isomer, unassigned) [Example 36-1, 2-[1-(4-ethoxy-2,6-difluorobenzyl)-1H-indazol-3-yl]-5-[2-(methylsulfinyl)ethoxy]-N-(pyridin-4-yl)pyrimidin-4-amine] | – | – | 3.3 | –
21 | CCOc1cc(F)c(Cn2nc(-c3ncc(OCCN)c(Nc4ccncc4)n3)c3ccccc32)c(F)c1 [Example 38-1, 5-(2-aminoethoxy)-2-[1-(4-ethoxy-2,6-difluorobenzyl)-1H-indazol-3-yl]-N-(pyridin-4-yl)pyrimidin-4-amine] | – | 1.4 | – | –
22 | CCOc1cc(F)c(Cn2nc(-c3ncc(OCCSC)c(Nc4ccncc4)n3)c3ccccc32)c(F)c1 [Example 4-16, 2-[1-(4-ethoxy-2,6-difluorobenzyl)-1H-indazol-3-yl]-5-[2-(methylsulfanyl)ethoxy]-N-(pyridin-4-yl)pyrimidin-4-amine] | – | – | – | 4.4
23 | CCOc1cc(F)c(Cn2nc(-c3ncc(OCC[S+](C)[O-])c(Nc4ccncc4)n3)c3ccccc32)c(F)c1 (single isomer, unassigned) [Example 36-3, 2-[1-(4-ethoxy-2,6-difluorobenzyl)-1H-indazol-3-yl]-5-[2-(methylsulfinyl)ethoxy]-N-(pyridin-4-yl)pyrimidin-4-amine] | – | – | 0.43 | –
